# According to US20230002397A1, “SMALL MOLECULE DEGRADERS OF HELIOS AND METODS OF USE” (DANA-FARBER CANCER INSTITUTE, INC., priority 2019, published 2023):
# Molecular target: T1, IKZF2 (Homo sapiens, UniProt Q96SW2+Q9UKS7)
# T1 construct: CRISPR/Cas9—mediated insertion of the HiBiT peptide tag (Promega™) to the N-terminus of the IKZF2 gene locus; endogenous in cells; host or cells: MOLT4 cells, with CRISPR/Cas9 knock-in of HiBiT at the endogenous IKZF2 locus
# Assay: HiBit-IKZF2 assay (HiBiT-Helios degradation in MOLT4 cells)
# Assay type: cell-based
# Details: for Dmax: MOLT-4, extent of degradation from highest to lowest concentration, 10 μM to 0.00026 μM, read-out: Dmax; for DC50: concentration at which 50% of HiBiT-Helios degradation was achieved
# Description: The HiBiT protein tagging system was applied to MOLT4 cells via a CRISPR/Cas9—mediated insertion of the HiBiT peptide tag (Promega™) to the N-terminus of the IKZF2 gene locus (Neon™ Transfection System). The resulting HiBiT-Helios stable cell line was treated with the following compounds in triplicates following a 13-point concentration scheme ranging from 10 μM to 0.00026 μM. At the indicated timepoints, the Nano-Glo® HiBiT Lytic Detection System (Promega™) was utilized for detecting bioluminescence of the HiBiT tag in treated cells: abundance of the tag is proportionate to the level of luminescence. Following normalization to DMSO, dose-response curves were plotted (GraphPad Prism) to determine the concentration points at which 50% of HiBiT-Helios degradation was achieved by each compound. The extent of degradation (range of luminescence) from the highest to lowest concentration points was calculated to determine the Dmax.
# T1 sequence (Q9UKS7 whole entry): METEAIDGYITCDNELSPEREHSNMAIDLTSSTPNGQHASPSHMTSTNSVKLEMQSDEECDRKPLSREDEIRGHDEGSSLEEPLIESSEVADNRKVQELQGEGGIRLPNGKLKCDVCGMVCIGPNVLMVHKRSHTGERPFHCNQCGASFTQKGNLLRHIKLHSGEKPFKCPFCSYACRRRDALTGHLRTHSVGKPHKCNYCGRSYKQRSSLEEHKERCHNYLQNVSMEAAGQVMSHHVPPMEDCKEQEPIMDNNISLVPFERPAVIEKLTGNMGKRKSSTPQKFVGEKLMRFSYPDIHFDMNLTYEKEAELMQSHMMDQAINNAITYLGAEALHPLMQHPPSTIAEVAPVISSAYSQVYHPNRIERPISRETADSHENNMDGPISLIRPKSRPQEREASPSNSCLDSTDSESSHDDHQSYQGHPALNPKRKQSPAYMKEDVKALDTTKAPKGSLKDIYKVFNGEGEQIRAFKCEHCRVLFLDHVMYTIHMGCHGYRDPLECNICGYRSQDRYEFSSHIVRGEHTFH
# T1 sequence (Q96SW2 whole entry): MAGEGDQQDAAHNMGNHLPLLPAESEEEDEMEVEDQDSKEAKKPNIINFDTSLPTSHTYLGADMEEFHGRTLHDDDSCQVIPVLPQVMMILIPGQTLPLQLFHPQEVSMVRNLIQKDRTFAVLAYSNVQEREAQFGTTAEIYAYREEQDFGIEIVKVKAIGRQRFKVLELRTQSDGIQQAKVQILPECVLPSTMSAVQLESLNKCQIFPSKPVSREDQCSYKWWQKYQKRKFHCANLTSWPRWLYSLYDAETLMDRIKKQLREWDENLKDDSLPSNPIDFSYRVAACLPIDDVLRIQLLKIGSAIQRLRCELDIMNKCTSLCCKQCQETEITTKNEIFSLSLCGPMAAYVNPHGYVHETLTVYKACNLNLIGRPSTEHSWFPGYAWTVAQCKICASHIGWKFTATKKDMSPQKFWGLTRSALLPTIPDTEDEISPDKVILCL
# T1 sequence (Q16531 whole entry partner): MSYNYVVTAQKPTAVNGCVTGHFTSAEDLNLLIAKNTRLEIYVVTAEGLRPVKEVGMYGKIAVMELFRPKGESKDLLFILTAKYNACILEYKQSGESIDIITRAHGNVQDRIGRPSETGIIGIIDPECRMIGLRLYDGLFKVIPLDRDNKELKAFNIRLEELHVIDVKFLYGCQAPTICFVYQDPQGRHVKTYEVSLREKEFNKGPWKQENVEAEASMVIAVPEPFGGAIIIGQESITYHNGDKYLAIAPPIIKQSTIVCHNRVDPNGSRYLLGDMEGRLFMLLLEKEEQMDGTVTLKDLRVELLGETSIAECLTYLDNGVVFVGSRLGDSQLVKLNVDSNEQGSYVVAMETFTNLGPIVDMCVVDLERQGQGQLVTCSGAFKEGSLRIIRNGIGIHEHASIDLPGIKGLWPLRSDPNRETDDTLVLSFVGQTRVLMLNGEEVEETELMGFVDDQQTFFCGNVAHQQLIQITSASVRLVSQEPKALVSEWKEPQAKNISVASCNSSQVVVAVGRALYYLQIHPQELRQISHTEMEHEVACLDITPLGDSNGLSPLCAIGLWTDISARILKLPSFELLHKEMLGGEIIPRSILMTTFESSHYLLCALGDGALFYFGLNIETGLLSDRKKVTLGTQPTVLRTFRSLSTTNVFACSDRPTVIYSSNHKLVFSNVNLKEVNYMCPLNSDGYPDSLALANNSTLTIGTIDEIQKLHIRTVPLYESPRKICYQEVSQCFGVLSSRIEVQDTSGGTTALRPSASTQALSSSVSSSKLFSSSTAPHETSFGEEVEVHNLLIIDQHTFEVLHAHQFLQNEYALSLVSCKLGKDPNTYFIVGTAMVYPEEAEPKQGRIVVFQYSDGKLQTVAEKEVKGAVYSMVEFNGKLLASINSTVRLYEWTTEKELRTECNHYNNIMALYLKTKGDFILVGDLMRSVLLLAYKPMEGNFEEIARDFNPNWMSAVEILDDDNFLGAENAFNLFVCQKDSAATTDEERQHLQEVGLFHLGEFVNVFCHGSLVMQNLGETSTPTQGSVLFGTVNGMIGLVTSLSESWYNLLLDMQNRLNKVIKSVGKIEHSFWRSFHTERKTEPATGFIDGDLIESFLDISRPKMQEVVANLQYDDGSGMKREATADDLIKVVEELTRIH
Structure (SMILES),Dmax [%],DC50 [nM]
O=C1CCC(N2Cc3cc(C4CCN(Cc5cccc(C(=O)Nc6ccccn6)c5)CC4)ccc3C2=O)C(=O)N1 (centres unmarked) [Compound 156],50 to 70,< 10
O=C1CCC(N2Cc3cc(C4(O)CCN(Cc5cnc(-c6ccccc6)s5)CC4)ccc3C2=O)C(=O)N1 (centres unmarked) [Compound 240],> 70,< 10
Cc1ccc(C)n1-c1ccc(CN2CCC(O)(c3ccc4c(c3)CN(C3CCC(=O)NC3=O)C4=O)CC2)cc1 (centres unmarked) [Compound 278],> 70,10 to 30
O=C1CCC(N2Cc3cc(C4(O)CCN(Cc5ccc6c(c5)OCCCO6)CC4)ccc3C2=O)C(=O)N1 (centres unmarked) [Compound 272],> 70,< 10
O=C1CCC(N2Cc3cc(C4CCN(Cc5ccc6c(c5)CN(c5ccccc5)C6=O)CC4)ccc3C2=O)C(=O)N1 (centres unmarked) [Compound 123],50 to 70,10 to 30
O=C1CCC(N2Cc3cc(C4(O)CCN(Cc5cccc(-c6ccccc6)c5)CC4)ccc3C2=O)C(=O)N1 (centres unmarked) [Compound 273],> 70,< 10
O=C1CCC(N2Cc3cc(C4CCN(Cc5ccc6c(c5)C(=O)N(c5ccccc5F)C6)CC4)ccc3C2=O)C(=O)N1 (centres unmarked) [Compound 174],50 to 70,< 10
O=C1CCC(N2Cc3cc(C4CCN(Cc5cccc6c5CN(c5ccccn5)C6=O)CC4)ccc3C2=O)C(=O)N1 (centres unmarked) [Compound 124],50 to 70,10 to 30
O=C1CCC(N2Cc3cc(C4CCN(Cc5ccc6c(c5)C(=O)N(c5cccc(Cl)c5)C6)CC4)ccc3C2=O)C(=O)N1 (centres unmarked) [Compound 176],> 70,30 to 150
O=C1CCC(N2Cc3cc(C4CCN(Cc5cccc6c5C(=O)N(c5ccccc5)C6)CC4)ccc3C2=O)C(=O)N1 (centres unmarked) [Compound 121],30 to 50,30 to 150
COc1ccc(CN2CCC(O)(c3ccc4c(c3)CN(C3CCC(=O)NC3=O)C4=O)CC2)cc1 (centres unmarked) [Compound 262],50 to 70,10 to 30
O=C1CCC(N2Cc3cc(C4(O)CCN(Cc5ccc6c(c5)C(=O)N(c5ccccn5)C6)CC4)ccc3C2=O)C(=O)N1 (centres unmarked) [Compound 220],> 70,< 10
O=C1CCC(N2Cc3cc(C4CCN(Cc5ccc(F)c(Nc6ccccc6)n5)CC4)ccc3C2=O)C(=O)N1 (centres unmarked) [Compound 187],50 to 70,10 to 30
O=C1CCC(N2Cc3cc(C4CCN(Cc5ccnc(Nc6ccccc6)c5)CC4)ccc3C2=O)C(=O)N1 (centres unmarked) [Compound 137],50 to 70,< 10
O=C1CCC(N2Cc3cc(C4(O)CCN(Cc5cccc6cccnc56)CC4)ccc3C2=O)C(=O)N1 (centres unmarked) [Compound 280],> 70,10 to 30
O=C1CCC(N2Cc3cc(C4CCN(Cc5cccc(Nc6ncccn6)c5F)CC4)ccc3C2=O)C(=O)N1 (centres unmarked) [Compound 188],50 to 70,< 10
O=C1CCC(N2Cc3cc(C4CCN(Cc5cccc(Nc6ccsn6)c5)CC4)ccc3C2=O)C(=O)N1 (centres unmarked) [Compound 233],50 to 70,10 to 30
O=C1CCC(N2Cc3cc(C4CCN(Cc5cnc(Nc6ccccc6)s5)CC4)ccc3C2=O)C(=O)N1 (centres unmarked) [Compound 148],50 to 70,10 to 30
O=C1CCC(N2Cc3cc(C4CCN(Cc5cccc(Nc6ncc(Cl)cn6)c5)CC4)ccc3C2=O)C(=O)N1 (centres unmarked) [Compound 227],50 to 70,< 10
O=C1CCC(N2Cc3cc(C4(O)CCN(Cc5ccc6ncn(-c7ccccn7)c(=O)c6c5)CC4)ccc3C2=O)C(=O)N1 (centres unmarked) [Compound 235],> 70,< 10
Cc1ccnc(Nc2cccc(CN3CCC(c4ccc5c(c4)CN(C4CCC(=O)NC4=O)C5=O)CC3)c2)n1 (centres unmarked) [Compound 229],50 to 70,< 10
O=C1CCC(N2Cc3cc(C4(O)CCN(Cc5ccc(F)c(Cl)c5)CC4)ccc3C2=O)C(=O)N1 (centres unmarked) [Compound 255],> 70,< 10
O=C1CCC(N2Cc3cc(C4CCN(Cc5ccccc5)C(CO)C4)ccc3C2=O)C(=O)N1 (centres unmarked) [Compound 212],50 to 70,30 to 150
O=C1CCC(N2Cc3cc(C4CCN(Cc5ccc(Nc6ccccc6)nc5)CC4)ccc3C2=O)C(=O)N1 (centres unmarked) [Compound 142],50 to 70,10 to 30
O=C1CCC(N2Cc3cc(C4(O)CCN(Cc5ccccc5-c5ccccc5)CC4)ccc3C2=O)C(=O)N1 (centres unmarked) [Compound 274],50 to 70,< 10
O=C1CCC(N2Cc3cc(C4(O)CCN(Cc5ccc(Oc6ccccc6)cc5)CC4)ccc3C2=O)C(=O)N1 (centres unmarked) [Compound 253],50 to 70,< 10

Structure (SMILES),Dmax [%],DC50 [nM]
O=C1CCC(N2Cc3cc(C4CCN(Cc5ccc(C(=O)Nc6ccccc6)cc5)CC4)ccc3C2=O)C(=O)N1 (centres unmarked) [Compound 158],50 to 70,30 to 150
O=C1CCC(N2Cc3cc(C4CCN(Cc5cc6c(cn5)CN(c5ccccc5)C6=O)CC4)ccc3C2=O)C(=O)N1 (centres unmarked) [Compound 173],50 to 70,10 to 30
"O=C1CCC(N2Cc3cc(C4(O)CCN(Cc5ccc6c(c5)C(=O)N(c5ccccc5)C6)CC4)ccc3C2=O)C(=O)N1 (centres unmarked) [Compound 200, 3-(5-(4-hydroxy-1-((3-oxo-2-phenylisoindolin-5-yl)methyl)piperidin-4-yl)-1-oxoisoindolin-2-yl)piperidine-2,6-dione]",> 70,< 10
O=C1CCC(N2Cc3cc(C4CCN(Cc5ccccc5N5Cc6ccccc6C5=O)CC4)ccc3C2=O)C(=O)N1 (centres unmarked) [Compound 117],30 to 50,30 to 150
O=C1CCC(N2Cc3cc(C4(O)CCN(Cc5ccc6ncccc6c5)CC4)ccc3C2=O)C(=O)N1 (centres unmarked) [Compound 279],> 70,< 10
O=C1CCC(N2Cc3cc(C4(O)CCN(Cc5ccc(C6CC6)cc5)CC4)ccc3C2=O)C(=O)N1 (centres unmarked) [Compound 270],> 70,< 10
CN(c1ccccn1)S(=O)(=O)c1ccc(CN2CCC(c3ccc4c(c3)CN(C3CCC(=O)NC3=O)C4=O)CC2)cc1 (centres unmarked) [Compound 99],30 to 50,30 to 150
O=C1CCC(N2Cc3cc(C4(O)CCN(Cc5ccc(C(F)(F)F)cc5)CC4)ccc3C2=O)C(=O)N1 (centres unmarked) [Compound 251],> 70,< 10
O=C1CCC(N2Cc3cc(C4CCN(Cc5cccc(S(=O)(=O)N6CCC7(CC7)C6)c5)CC4)ccc3C2=O)C(=O)N1 (centres unmarked) [Compound 60],50 to 70,10 to 30
O=C1CCC(N2Cc3cc(C4(O)CCN(Cc5ccnc(Nc6ccccc6)n5)CC4)ccc3C2=O)C(=O)N1 (centres unmarked) [Compound 196],> 70,< 10
O=C1CCC(N2Cc3cc(C4CCN(Cc5ccc6c(c5)C(=O)N(c5ncccc5F)C6)CC4)ccc3C2=O)C(=O)N1 (centres unmarked) [Compound 221],50 to 70,< 10
"O=C1CCC(N2Cc3cc(C4CCN(Cc5cccc(C(=O)Nc6ccccc6)c5)CC4)ccc3C2=O)C(=O)N1 (centres unmarked) [Compound 86, 3-((4-(2-(2,6-dioxopiperidin-3-yl)-1-oxoisoindolin-5-yl)piperidin-1-yl)methyl)-N-phenylbenzamide]",50 to 70,< 10
O=C1CCC(N2Cc3cc(C4CCN(Cc5cccc(N6Cc7ccccc7S6(=O)=O)c5)CC4)ccc3C2=O)C(=O)N1 (centres unmarked) [Compound 136],50 to 70,< 10
O=C1CCC(N2Cc3cc(C4CCN(Cc5cccc(N6CCN(c7ccccc7)C6=O)c5)CC4)ccc3C2=O)C(=O)N1 (centres unmarked) [Compound 48],50 to 70,30 to 150
O=C1CCC(N2Cc3cc(C4(O)CCN(Cc5ccc(OC(F)F)cc5)CC4)ccc3C2=O)C(=O)N1 (centres unmarked) [Compound 247],> 70,< 10
O=C1CCC(N2Cc3cc(C4CCN(Cc5cccc(Nc6cccnn6)c5)CC4)ccc3C2=O)C(=O)N1 (centres unmarked) [Compound 127],50 to 70,10 to 30
CP(C)(=O)c1ccccc1Nc1cccc(CN2CCC(c3ccc4c(c3)CN(C3CCC(=O)NC3=O)C4=O)CC2)c1 (centres unmarked) [Compound 134],50 to 70,< 10
O=C1CCC(N2Cc3cc(C4CCN(Cc5ccc6c(c5)C(=O)N(c5ccsn5)C6)CC4)ccc3C2=O)C(=O)N1 (centres unmarked) [Compound 223],50 to 70,10 to 30
O=C1CCC(N2Cc3cc(C4CCN(Cc5cccc(Nc6ncccc6F)c5)CC4)ccc3C2=O)C(=O)N1 (centres unmarked) [Compound 133],50 to 70,< 10
O=C1CCC(N2Cc3cc(C4CCN(Cc5cccc(Nc6ccccn6)n5)CC4)ccc3C2=O)C(=O)N1 (centres unmarked) [Compound 101],30 to 50,10 to 30
O=C1CCC(N2Cc3cc(C4(O)CCN(Cc5cccc6ccccc56)CC4)ccc3C2=O)C(=O)N1 (centres unmarked) [Compound 204],> 70,< 10
O=C1CCC(N2Cc3cc(C4(O)CCN(Cc5cccc(OCc6ccccc6)c5)CC4)ccc3C2=O)C(=O)N1 (centres unmarked) [Compound 277],> 70,< 10
O=C1CCC(N2Cc3cc(C4(O)CCN(Cc5cccc(Oc6ccccc6)c5)CC4)ccc3C2=O)C(=O)N1 (centres unmarked) [Compound 193],> 70,< 10
O=C1CCC(N2Cc3cc(C4CCN(Cc5ccc(Nc6ccccn6)cc5)CC4)ccc3C2=O)C(=O)N1 (centres unmarked) [Compound 145],50 to 70,30 to 150
O=C1CCC(N2Cc3cc(C4CCN(Cc5cccc(N6Cc7cccnc7C6=O)c5)CC4)ccc3C2=O)C(=O)N1 (centres unmarked) [Compound 129],50 to 70,10 to 30
O=C1CCC(N2Cc3cc(C4(O)CCN(Cc5cccnc5Oc5ccccc5)CC4)ccc3C2=O)C(=O)N1 (centres unmarked) [Compound 195],50 to 70,< 10
